Results: patent EP3364964B1, “COMPOSITION BASED ON DIHYDROMYRICETIN AND A ZINC SALT FOR THE TREATMENT OF ACNE AND OILY SKIN” (Thorel, Jean-Noël, priority 2015, dated 2017)
Several values for one entry are separate records, joined by “and”; a condition that tells them apart may be missing. Equal entries are not always repeated.

Legend:
[1] = tested on: lignée de sébocytes humains SEB0662; test: MTT cell viability / cytotoxicity test in sebocytes; assay type: cell-based
Procedure: (§1) Dans cette étude, on utilise la lignée de sébocytes humains SEB0662.
(§2) Les cellules sont cultivées dans le milieu de culture classique des sébocytes, à 37°C et en présence de 5% de CO2. Les cellules sont utilisées au 7^ème passage.
La sélection des doses d'actifs est réalisée grâce à un test de viabilité cellulaire au MTT. On retient les doses qui permettent de maintenir une viabilité supérieure à 90%.
L'erreur standard de la moyenne (esm) représente l'écart de ln moyenne de l'échantillon par rapport à la moyenne de la population. L'esm est calculée en divisant l'écart-type (Sd) par la racine carrée de la taille de l'échantillon (sqrt(n)). Erreur standard de la moyenne(esm) = écart-type(Sd)/sqrt(n) [formula] Pourcentage de viabilité: viabilité(%) = (DOcomposé/DOtémoin) × 100 [formula] Pourcentage de stimulation: Stimulation(%) = [(Valeur/moyennedutémoin)×100]−100 [formula] Pourcentage de d'inhibition: Inhibition(%) = 100−[(Valeur/moyennedutémoin)×100] [formula]

[2] = tested on: collagénase issue de Clostridium histolyticum; test: Anti-collagenase activity, MMP-1 kit, in tubo fluorescence test; assay type: biochemical
Description: L'activité anti-collagénase est mesurée grâce au kit MMP-1 (Molecular Probes; Réf E12055). Le principe est basé sur la capacité d'une enzyme de la famille des MMP (« Marix Metallo-Proteinase ») zinc-dépendantes, en l'occurrence la collagénase issue de Clostridium histolyticum, à hydrolyser son substrat (collagène-I) pour donner des composés fluorescents mesurables.
En présence d'un inhibiteur, l'action de l'enzyme est altérée empêchant l'hydrolyse de son substrat. La 1,10 phénanthroline est utilisée comme le témoin positif d'inhibition de l'enzyme. La fluorescence émise à 535 nm est mesurée après excitation à 485 nm.
La 1,10-phenanthroline monohydrate (10mM), un inhibiteur connu des MMP fourni dans le kit, est utilisée comme contrôle positif.
Les contrôles négatifs suivants ont été réalisés : • Témoin H2O : ce témoin a été utilisé pour solubiliser la 1-10-phenantroline monohydrate; il représente arbitrairement 100% d'activité de l'enzyme par rapport aux résultats obtenus avec ce contrôle. • Témoin solvant (DMSO 1%) : quantité de solvant inclus dans l'ensemble des actifs et associations à tester; il représente arbitrairement 100% d'activité de l'enzyme par rapport aux résultats obtenus avec les actifs et associations testés.
Le gluconate de zinc a été testé à la concentration de 0,1% (en poids).
La DHM a été testée aux concentrations suivantes : 0,002% et 0,05% (en poids). L'association gluconate de zinc 0,1% + DHM 0,002% a également été testée.
Les analyses quantitatives sont exprimées sous forme de moyenne ± l'écart type. La significativité statistique est déterminée par un test de Student. Les différences sont considérées comme statistiquement significatives entre l'actif testé et son témoin solvant à partir de p<0.05. (NS : […]).

[3] = tested on: sébocytes SEB0662; test: IGF-1 induced lipid synthesis in sebocytes (Bodipy lipid droplet labelling, 14 days); assay type: cell-based, humains; settings: 0,001%, IGF-1 20 ng/ml
Procedure: La présente étude vise à étudier l'effet de la DHM et/ou du gluconate de zinc (Zn) sur l'inhibition de la synthèse des lipides, induite par l'ajout d'IGF-1, dans les sébocytes. Cet effet est suivi par marquage, à l'aide d'une sonde lipidique fluorescente couplée au Bodipy®, des sébocytes SEB0662 cultivés en monocouche pendant 14 jours en milieu de différenciation (supplémenté en IGF-1 à 20 ng/ml).
as §1, §2
Pour l'évaluation des actifs, un milieu dit de différenciation (milieu de culture classique supplémenté en dihydrotestostérone, albumine bovine sérique, acide linoléïque, glucose, sérum de veau fœtal, hydrocortisone et agonistes des PPAR (« Peroxysome Proliferator Activated Receptor »)), complémenté en IGF-1 à 20 ng/ml, est utilisé. L'ajout d'IGF-1 stimule la production de lipides par les sébocytes. […]
Les marquages sont quantifiés par mesure de l'intensité de fluorescence de la sonde rapportée au nombre de noyaux identifiés par le Hoechst (intégration des données numériques par le logiciel Developer Toolbox 1 .5, GE Healthcare). […]

[4] = tested on: Propionibacterium acnes ATCC 69.19; test: Growth inhibition of P. acnes, micromethod of Lens-Lisbonne et al. (MIC); assay type: cell-based; settings: first concentration with growth <= 20 %, 36° C, 3 to 5 days, anaerobic
Description: L'objet de cette étude est d'évaluer l'activité inhibitrice de composés vis-à-vis de la souche Propionibacterium acnes selon les principes de la méthode décrite par Lens-Lisbonne et al. (1987).
La méthode de Lens-Lisbonne et al. permet de tester en milieu liquide le pouvoir antibactérien de substances faiblement solubles et/ou très volatiles, et permet d'éviter les méthodes par diffusion ou en phase vapeur. Brièvement, elle consiste à mettre en présence des volumes égaux de produit à tester et de milieu inoculé, à différentes concentrations. […] L'activité inhibitrice est évaluée à partir des mesures d'absorbance du mélange, comparées aux conditions contrôle. […]
Après incubation de la microplaque pendant une durée définie, la densité optique à 620 nm est mesurée. Les résultats sont exprimés en pourcentage de croissance calculé par rapport à un témoin de croissance et un témoin d'absorbance selon l'équation suivante: Pourcentage de croissance = (DOmesuréeduproduitàlaconcentrationC−DOmesuréedutémoind'absorbanceproduitàlaconcentrationC)/DO mesurée témoin de croissance [formula] […]
Le test est effectué sur microplaque 96 puits. En synthèse, 30 puits sont utilisés pour les témoins d'absorbance; 30 puits sont utilisés pour les essais. […]

[5] = Protection of squalene against oxidation induced by hydrogen peroxide (GC/MS of non-oxidised squalene); settings: H2O2 6%, 1 h; for Squalène Moyenne: mean; for Squalène (µg/ml): single trials (Essai)
Description: L'objectif de ce test est d'évaluer l'inhibition par la DHM de l'oxydation du squalène, induite par le peroxyde d'hydrogène (H2O2). Le Trolox (6-Hydroxy-2,5,7,8-tétraméthylchroman-2-carboxylic acid), un équivalent hydrosoluble de la vitamine E, est un antioxydant connu et est utilisé dans ces tests en tant que témoin positif.
Le squalène (Sigma Aldrich) est dans un premier temps solubilisé dans une chambre réactionnelle.
L'oxydation du squalène est induite par l'ajout d'une solution de peroxyde d'hydrogène (H2O2 à une concentration finale de 6%).
Les actifs devant être évalués sont ajoutés au mélange réactionnel. Ainsi, le Trolox à 0,8% en poids est utilisé comme témoin positif de la protection contre l'oxydation du squalène.
Un contrôle positif, correspondant au squalène incubé en présence d'H2O2, et un contrôle négatif, correspondant au squalène non exposé à l'H2O2, sont également réalisés.
Le mélange obtenu est mis sous agitation pendant une heure, à température ambiante et à l'abri de la lumière.
Le squalène est ensuite extrait du milieu réactionnel à l'aide d'une extraction liquide/liquide. Après évaporation de la solution organique, le résidu est solubilisé dans une solution de chloroforme et le squalène est analysé par une méthode de chromatographie GC/MS.
La mesure de la concentration en squalène permet d'estimer la quantité de squalène ayant été oxydée au cours de la réaction. En effet et selon la technique de mesure utilisée, seule la forme non oxydée est détectée.

Molecule: gluconate de zinc [reference compound]
- cytotoxicité ([1]; 0,001%): ne présente pas de cytotoxicité
- inhibition de l'activité collagénase ([2]; 0,1% en poids, versus DMSO 1% control): 80,2%
- inhibition de la synthèse des lipides induite par l'IGF-1 [3]: ~15%
- CMI microméthode (%-m/v) ([4]; Test 1): 0,05 %-m/v
- CMI microméthode (%-m/v) ([4]; Test 2): 0,05 %-m/v

Molecule: Cc1c(C)c2c(c(C)c1O)CCC(C)(C(=O)O)O2 (stereo not drawn) [Trolox, 6-Hydroxy-2,5,7,8-tétraméthylchroman-2-carboxylic acid, reference compound]
- Indice de protection (%) ([5]; 0,8 % en poids): 42,94%
- Squalène Moyenne ([5]; 0,8 % en poids): 31,85 µg/ml
- Squalène (µg/ml) ([5]; 0,8 % en poids): 31,41 µg/ml and 31,88 µg/ml and 32,25 µg/ml and 34,60 µg/ml and 32,49 µg/ml

Molecule: O.c1cnc2c(c1)ccc1cccnc12 [1-10-phénanthroline monohydrate, 1,10-phenanthroline monohydrate, reference compound]
- inhibition de l'activité collagénase ([2]; 10mM, versus H2O control): 79,6%

Molecule: O=C1c2c(O)cc(O)cc2O[C@H](c2cc(O)c(O)c(O)c2)[C@H]1O [DHM, (2R,3R)-3,5,7-trihydroxy-2-(3,4,5-trihydroxyphenyl)-2,3-dihydrochromen-4-one]
- effet cytotoxique ([1]; tested up to 0,003%): ne montre pas d'effet cytotoxique
- inhibition de l'activité collagénase ([2]; 0,05% en poids, versus DMSO 1% control): 30,1%
- inhibition de l'activité collagénase ([2]; 0,002% en poids, versus DMSO 1% control): 3,5%
- Indice de protection (%) ([5]; 0,01 % en poids): 35,19%
- Squalène Moyenne ([5]; 0,01 % en poids): 26,10 µg/ml
- Squalène (µg/ml) ([5]; 0,01 % en poids): 27,01 µg/ml and 24,86 µg/ml and 26,42 µg/ml
- Indice de protection (%) ([5]; 0,05 % en poids): 45,28%
- Squalène Moyenne ([5]; 0,05 % en poids): 33,58 µg/ml
- Squalène (µg/ml) ([5]; 0,05 % en poids): 34,44 µg/ml and 32,88 µg/ml and 33,41 µg/ml
- Indice de protection (%) ([5]; 0,005 % en poids): 28,64%
- Squalène Moyenne ([5]; 0,005 % en poids): 21,24 µg/ml
- Squalène (µg/ml) ([5]; 0,005 % en poids): 19,84 µg/ml and 21,37 µg/ml and 22,51 µg/ml
